The values below come from patent US10792365B2, “Peptide derivative and use thereof” (Toray Industries, Inc., priority 2016, dated 2020).

Data set [1] deals with A549 cells. In kind it is cell-based, human. The following applies: 48 h. The procedure: (§1) The compound of Example 12 and the compound of Example 13 were measured for cytotoxicity thereof on SKOV-3 cells, A549 cells, and L1210 cells by using MTS method.
(§2) An evaluation method of the compound of Example 12 is as follows: To each cell culturing in a medium that is absent of folate, the compound of Example 12 was treated for two hours, and then the cells transferred to a fresh medium absent of the compound and continuously maintained and cultured for 48 hours. Surviving cells after 48 hours were counted by using MTS method.
(§3) An evaluation method of the compound of Example 13 is as follows: To each cell culturing in a medium that is absent of folate, the compound of Example 13 was treated for six hours, and then the cells transferred to a fresh medium absent of the compound and continuously maintained and cultured for 48 hours. Surviving cells after 48 hours were counted by using MTS method.
(§4) It has been reported that SKOV-3 cells and L1210 cells express folate acceptors in medium to high expression level on their cell surface. It has been reported that A549 cells express folate acceptors in low expression level or undetectable level on its cell surface (Analytical Biochemistry, (2005), 338: pp. 284-293; Molecular Cancer Therapeutics, (2015), 14: pp. 1605 to 13).

The test system of data set [2] is SKOV-3 cells. It counts as cell-based, human. The following applies: 48 h. The procedure:
as §1, §2, §3, §4

Data set [3] deals with L1210 cells. In kind it is cell-based, mouse. As to conditions: 48 h. The procedure:
as §1, §2, §3, §4

For data set [4], the system named is SKOV-3 cells. Briefly: In vitro cytotoxicity of the peptide derivative (I), MTS method, SKOV-3 cells. It counts as cell-based, human. The text has this:
(§5) The cytotoxicity of the peptide derivative (I) or a pharmaceutically acceptable salt thereof, or the conjugate including the peptide derivative (I) or a pharmaceutically acceptable salt thereof can be evaluated with an in vitro study. Examples of the in vitro studies include the trypan blue dye exclusion method, the lactate dehydrogenase (LDH) activity assay, [^3H]thymidine incorporation method, or propidium iodide nuclear stain that each measures the number of dead cells or surviving cells post treated with the compound; a method using dyes such as MTT, MTS, and WST (Current Protocol in Toxicology, (2000), 2.6.1-2.6.27); or a method in which the amount of ATP is measured using CellTiter-Glow (Promega Corporation) and the like, and preferably include the method in which the number of surviving cells post treated with the compound is measured by using the MTS method to determine values of the cytotoxicity at that time from 50% effect-concentration (EC50). Furthermore, in the evaluation of the cytotoxicity of the conjugate including the peptide derivative (I) or a pharmaceutically acceptable salt thereof, preferred method is the one that for a certain time, cells are treated with a medium containing the compound, the cells are then transferred to a medium not containing the compound, and the number of surviving cells are measured after cultivation for additional certain time (Bioconjugate Chemistry., 2014; 25: pp. 560-568). For the in vitro studies, human ovarian cancer cell SKOV-3 cells, human alveolar basement epithelial gland cancer cell A549 cells, mouse lymphocytic leukocyte L1210 cells and the like are used.
(Tetrazolium dyes change colour on reduction, which living cells bring about.)

The subject of data set [5] is A549 cells. In words: In vitro cytotoxicity of the peptide derivative (I), MTS method, A549 cells. It counts as cell-based, human.
Excerpt: as §5

In data set [6] the test system is L1210 cells. Briefly: In vitro cytotoxicity of the peptide derivative (I), MTS method, L1210 cells. It counts as cell-based, mouse.
Excerpt: as §5

Data set [7] in a line: Parallel Artificial Membrane Permeation Assay (PAMPA), Pre-coated PAMPA Plate System (Corning). The following applies: for Membrane Permeability Coefficient: 200 μmol/L in PBS containing 20% of methanol, room temperature, five hours, N.D. = Acceptor side concentration less than lower limit of determinate quantity. The procedure:
Reference Example 14, the Compound of Reference Example 16, and the Compound of Comparative Example was Evaluated by Using Pre-Coated PAMPA PlateSystem (Corning)
A frozen-stored, Pre-coated PAMPA Plate System was allowed to stand at room temperature for thirty minutes or more. Subsequently, 320 μL of the standard solution was added to a Donor side plate of Pre-coated PAMPA Plate System, and 200 μL of the PBS containing 20% of methanol was added to an Acceptor side plate. Both of the plates were set for the system, and the plates allowed to stand at room temperature for five hours. The reaction liquid in each well of the Donor side and Acceptor side plates was subjected to LC/MS analysis (hereinafter, LC/MS-3), and the concentration of the compounds in each well calculated.
Using the obtained concentration of the compounds in the reaction liquid in each well, the membrane permeability coefficients (Pe) (cm/s) were calculated by the following formula: Cequilibrium=[…] Pe=[−ln(1−CA/Cequilibrium)]/S×(1/VD+1/VA)×t Cequilibrium: Equilibrium concentration of the wells in the Donor side and Acceptor side plates CD: Concentration after five hours of the wells in the Donor side plate (mmol/L) VD: Volume of the standard solution added to the wells in the Donor side plate (0.32 mL) CA: Concentration after five hours of the wells in the Acceptor side plate (mmol/L) VA: Volume of the PBS containing 20% of methanol added to the wells in the Acceptor side plate (0.2 mL) S: Surface of the membrane (0.3 cm^2) t: Standing time 18,000 s (=5 hrs).
(PAMPA measures passive passage across an artificial lipid membrane.)

Read-outs that look alike come from different tables or passages of the source.

As to `CC[C@H](C)C([C@@H](CC(=O)N1CCC[C@H]1[C@H](OC)[C@@H](C)C(=O)N[C@@H](Cc1ccccc1)c1nc(C(=O)N(C)CCSSCCN(C)C(=O)CCOCCOCCOCCOCCOCCOCCOCCOCCOCCOCCOCCOCCNC(=O)CCN2C(=O)CC(SCCNC(=O)[C@H](CCC(=O)O)NC(=O)CC[C@H](NC(=O)c3ccc(NCc4c[nH]c5nc(N)nc(=O)c-5n4)cc3)C(=O)O)C2=O)cs1)OC)N(C)C(=O)[C@@H](NC(=O)[C@H](C(C)C)N(C)C)C(C)C` (stereo in doubt) [Example 13], the concentration giving a half-maximal response (EC50) – broadly, the midpoint of the concentration-response curve – was more than 300 nM in the data set with A549 cells [1], 19.4 nM in the data set on SKOV-3 cells [2] and 36 nM in the data set with L1210 cells [3].

As to `CCNC(=O)c1csc([C@H](Cc2ccccc2)NC(=O)[C@@H](C)[C@@H](OC)[C@@H]2CCCN2C(=O)C[C@@H](OC)[C@H]([C@@H](C)CC)N(C)C(=O)[C@@H](NC(=O)[C@H](C(C)C)N(C)C)C(C)C)n1` [Comparative Example, reference compound], the EC50 in the data set with SKOV-3 cells [4] was determined as 0.55 nM; in the data set with A549 cells [5], 0.74 nM; with L1210 cells [6], 6.51 nM. Moreover, the “Membrane Permeability Coefficient” value in data set [7] is reported as 1.68 10^−6 cm/s.

Consider `CC[C@H](C)[C@@H]([C@@H](CC(=O)N1CCC[C@H]1[C@H](OC)[C@@H](C)C(=O)N[C@@H](Cc1ccccc1)c1nc(C(=O)N(C)CCN)cs1)OC)N(C)C(=O)[C@@H](NC(=O)[C@H](C(C)C)N(C)C)C(C)C` [Example 5, N-(2-aminoethyl)-2-((S)-1-((2R,3R)-3-((S)-1-((3R,4S,5S)-4-((S)-2-((S)-2-(dimethylamino)-3-methylbutanamido)-N,3-dimethylbutanamido)-3-methoxy-5-methylheptanoyl)pyrrolidin-2-yl)-3-methoxy-2-methylpropanamido)-2-phenylethyl)-N-methylthiazole-4-carboxamide dihydro chloride], for which the EC50 stood at 0.56 nM with SKOV-3 cells [4] (Homo sapiens, SK-OV-3); 0.81 nM in the data set on A549 cells [5] (Homo sapiens); 11.7 nM with L1210 cells [6] (Mus musculus). For the same compound, the Papp (usually a coefficient for how fast a substance crosses the barrier) at 5 h, 200 μmol/L in data set [7] is 0.01 ×10⁻⁶ cm/s.

With `CC[C@H](C)[C@@H]([C@@H](CC(=O)N1CCC[C@H]1[C@H](OC)[C@@H](C)C(=O)N[C@@H](Cc1ccccc1)c1nc(C(=O)O)cs1)OC)N(C)C(=O)[C@@H](NC(=O)[C@H](C(C)C)N(C)C)C(C)C` [Reference Example 1, 2-((S)-1-((2R,3R)-3-((S)-1-((3R,4S,5S)-4-((S)-2-((S)-2-(dimethylamino)-3-methylbutanamido)-N,3-dimethylbutanamido)-3-methoxy-5-methylheptanoyl)pyrrolidin-2-yl)-3-methoxy-2-methylpropanamido)-2-phenylethyl)thiazole-4-carboxylic acid, reference compound], the EC50 in the data set on SKOV-3 cells [4] (Homo sapiens, SK-OV-3) is more than 10 nM; in the data set with A549 cells [5] (Homo sapiens), more than 10 nM; in the data set on L1210 cells [6] (Mus musculus), more than 50 nM. The “Membrane Permeability Coefficient” value in data set [7] is recorded as 0.01 10^−6 cm/s.
